Reference: PubChem BioAssay (NCI)
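Dose response: 5 concentrations. Exposure: 48 h. Format: 96-well plates. Endpoint: linear interpolation; highest concentration if not reached. GI50 marks 50% less growth. At the TGI there is no net growth.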

Key:
Assay in all cases: NCI-60 cell line screen, 48 h
DU-145 prostate = test system: DU-145 prostate
BT-549 breast = test system: BT-549 breast
MDA-MB-231 breast = test system: MDA-MB-231 breast
HCT-116 colon = test system: HCT-116 colon
OVCAR-5 ovarian = test system: OVCAR-5 ovarian
MOLT-4 leukemia = test system: MOLT-4 leukemia
IGROV1 ovarian = test system: IGROV1 ovarian
TK-10 renal = test system: TK-10 renal
COLO 205 colon = test system: COLO 205 colon
RXF 393 renal = test system: RXF 393 renal
SF-539 CNS = test system: SF-539 CNS
A498 renal = test system: A498 renal
SK-MEL-28 melanoma = test system: SK-MEL-28 melanoma
MDA-MB-435 = test system: MDA-MB-435
NCI-H226 lung = test system: NCI-H226 lung
CCRF-CEM leukemia = test system: CCRF-CEM leukemia
OVCAR-3 ovarian = test system: OVCAR-3 ovarian
HOP-62 NSCLC = test system: HOP-62 NSCLC
HCC-2998 colon = test system: HCC-2998 colon
HS 578T breast = test system: HS 578T breast
U251 CNS = test system: U251 CNS
SW-620 colon = test system: SW-620 colon
SNB-75 CNS = test system: SNB-75 CNS
SK-OV-3 ovarian = test system: SK-OV-3 ovarian
SNB-19 CNS = test system: SNB-19 CNS
CAKI-1 renal = test system: CAKI-1 renal
MDA-MB-468 breast = test system: MDA-MB-468 breast

For `CN1CCc2c(sc3ncnc(N/N=C/c4cn(-c5ccccc5)nc4-c4ccc(Br)cc4)c23)C1`, the GI50 (DU-145 prostate) was > 100 µM, the TGI (DU-145 prostate) was > 100 µM and the GI50 (BT-549 breast) was > 100 µM. The TGI (BT-549 breast) was > 100 µM, the GI50 (MDA-MB-231 breast) was 0.362 µM and the TGI (MDA-MB-231 breast) was > 100 µM. The GI50 (HCT-116 colon) was 0.102 µM, the TGI (HCT-116 colon) was > 100 µM and the GI50 (OVCAR-5 ovarian) was > 100 µM. The TGI (OVCAR-5 ovarian) was > 100 µM, the GI50 (MOLT-4 leukemia) was 0.261 µM and the TGI (MOLT-4 leukemia) was > 100 µM. For the same compound, the GI50 (IGROV1 ovarian) was 0.322 µM, the TGI (IGROV1 ovarian) was > 100 µM and the GI50 (TK-10 renal) was > 100 µM. For the same compound, the TGI (TK-10 renal) was > 100 µM, the GI50 (COLO 205 colon) was 0.332 µM and the TGI (COLO 205 colon) was > 100 µM. The GI50 (RXF 393 renal) was 18.3 µM, the TGI (RXF 393 renal) was > 80.7 µM and the GI50 (SF-539 CNS) was 0.282 µM. For the same compound, the TGI (SF-539 CNS) was > 100 µM, the GI50 (A498 renal) was > 100 µM and the TGI (A498 renal) was > 100 µM. For the same compound, the GI50 (SK-MEL-28 melanoma) was > 100 µM, the TGI (SK-MEL-28 melanoma) was > 100 µM and the GI50 (MDA-MB-435) was > 100 µM. For the same compound, the TGI (MDA-MB-435) was > 100 µM, the GI50 (NCI-H226 lung) was > 100 µM and the TGI (NCI-H226 lung) was > 100 µM. For the same compound, the GI50 (CCRF-CEM leukemia) was 0.196 µM, the TGI (CCRF-CEM leukemia) was > 100 µM and the GI50 (OVCAR-3 ovarian) was 0.0375 µM. For the same compound, the TGI (OVCAR-3 ovarian) was 0.304 µM, the GI50 (HOP-62 NSCLC) was 0.399 µM and the TGI (HOP-62 NSCLC) was > 100 µM. For the same compound, the GI50 (HCC-2998 colon) was 0.285 µM, the TGI (HCC-2998 colon) was > 100 µM and the GI50 (HS 578T breast) was 16.4 µM. For the same compound, the TGI (HS 578T breast) was > 100 µM, the GI50 (U251 CNS) was 0.636 µM and the TGI (U251 CNS) was > 100 µM. The GI50 (SW-620 colon) was 0.352 µM, the TGI (SW-620 colon) was > 100 µM and the GI50 (SNB-75 CNS) was 5.88 µM. The TGI (SNB-75 CNS) was > 100 µM, the GI50 (SK-OV-3 ovarian) was > 100 µM and the TGI (SK-OV-3 ovarian) was > 100 µM. The GI50 (SNB-19 CNS) was 20.3 µM, the TGI (SNB-19 CNS) was > 100 µM and the GI50 (CAKI-1 renal) was > 100 µM. For the same compound, the TGI (CAKI-1 renal) was > 100 µM.

`Cc1ccc([I+]c2ccc(C)cc2)cc1` gave a GI50 (MDA-MB-468 breast) of 0.264 µM and a TGI (MDA-MB-468 breast) of 40 µM.

Work on `NNC(=S)N/N=C/c1ccccn1` yielded a GI50 (MDA-MB-468 breast) of 1.94 µM and a TGI (MDA-MB-468 breast) of 5.59 µM.

For `O=C1/C(=C\c2ccc(Cl)cc2)CN(C(=O)c2ccccc2)C/C1=C\c1ccc(Cl)cc1`, the GI50 (MDA-MB-468 breast) was 1.86 µM and the TGI (MDA-MB-468 breast) was 4.28 µM.

`O=C(CSc1nc2ccc([N+](=O)[O-])cc2[nH]1)Nc1ccc([N+](=O)[O-])cc1` gave a GI50 (MDA-MB-468 breast) of 1.08 µM and a TGI (MDA-MB-468 breast) of 5.05 µM.

Work on `O=C(NC(=S)Nc1ccc(-c2nc3ccccc3[nH]2)cc1)c1ccc2ccccc2c1` yielded a GI50 (MDA-MB-468 breast) of 2.34 µM and a TGI (MDA-MB-468 breast) of 7.72 µM.

With `NS(=O)(=O)c1ccc(N=Nc2c(O)[nH]c3cccc(CCc4ccncc4)c23)cc1` the GI50 (MDA-MB-468 breast) was > 25 µM and the TGI (MDA-MB-468 breast) was > 25 µM.

In the case of `Oc1c(CCl)cc(Cl)cc1Cc1cc(Cl)cc(Cc2cc(Cl)cc(CCl)c2O)c1O`, the GI50 (MDA-MB-468 breast) is reported as 3.28 µM and the TGI (MDA-MB-468 breast) is reported as 13.1 µM.
